Measured values reported in patent US20260216347A1, “Substituted Imidazo-Based Compounds as Ligand Directed Degraders of IRAK3” (Celgene Corporation, priority 2022, published 2026).

How the values were obtained:
[1] = biological target: T1, IRAK3 (Homo sapiens, UniProt Q9Y616); assay: IRAK3 biochemical binding assay (LanthaScreen Eu Kinase Binding, TR-FRET)
T1 construct: IRAK Endogenous HTRF Degradation Assay; endogenous in cells
T1 sequence (Q9Y616 1-596): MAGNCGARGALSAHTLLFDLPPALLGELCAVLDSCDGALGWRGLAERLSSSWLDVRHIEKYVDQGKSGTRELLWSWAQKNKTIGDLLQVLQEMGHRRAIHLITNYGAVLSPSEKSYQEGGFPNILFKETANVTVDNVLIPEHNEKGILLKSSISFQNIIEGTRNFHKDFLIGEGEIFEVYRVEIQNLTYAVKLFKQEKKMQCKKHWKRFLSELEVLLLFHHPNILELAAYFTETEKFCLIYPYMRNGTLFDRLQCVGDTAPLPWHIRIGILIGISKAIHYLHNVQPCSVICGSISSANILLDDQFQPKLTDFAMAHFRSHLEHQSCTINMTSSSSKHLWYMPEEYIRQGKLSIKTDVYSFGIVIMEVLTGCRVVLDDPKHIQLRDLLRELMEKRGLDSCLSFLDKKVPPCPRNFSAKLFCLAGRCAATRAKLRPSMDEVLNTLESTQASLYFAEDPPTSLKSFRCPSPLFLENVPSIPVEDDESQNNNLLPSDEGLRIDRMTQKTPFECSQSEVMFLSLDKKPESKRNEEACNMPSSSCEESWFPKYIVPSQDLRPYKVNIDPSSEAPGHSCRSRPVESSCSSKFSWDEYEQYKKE
Method: Example B3. IRAK3 Biochemical Binding Assay
The LanthaScreen® Eu Kinase Binding assay was performed as described by the vendor (ThermoFisher Scientific Waltham, MA). Briefly, 100× solutions of compound were prepared in DMSO via serial dilution of the 10 mM stock solution in a 384-well reagent plate using 3-fold intervals to achieve final concentrations. 1 μL of the compound dilution series were added to the corresponding wells of a 384-well reagent plate containing 32.3 μL of 1× buffer (50 mM HEPES pH 7.4, […], 1 mM EGTA, 0.01% Brij-35). 5 μL of the buffer diluted compounds were transferred to the corresponding wells of a 384-well assay plate. 5 μL of 3× tracer was transferred to each well of the assay plate for a final tracer concentration of 10 nM. Finally, 5 μL of the 3×Eu-Anti-GST and IRAK3 mix was transferred to each well for a final concentration of 2 nM and 10 nM respectively. Reactions were allowed to incubate for 1 hour at room temperature. TR-FRET signal of the interaction (λex340/λem 665/λem 615) was read at room temperature with a delay time of 100 ρs and an integration time of 200 ρs using an Envision plate reader. Background corrected emission signal ratios at each compound concentration were used to calculate percentage of inhibition (% Inhibition). Plots of % Inhibition versus inhibitor concentrations were fit according to a dose-response equation (Eq. 1) to generate IC50 and Hill slope values using Dotmatics software (Dotmatics, Bishops Stortford, Hertfordshire, England).
Using these assays, IC50, Dmax, EC50, and DC50 values of the following compounds were determined. Dmax is defined as the maximum percent degradation achieved and DC50 is the concentration at which 50% degradation is achieved.

[2] = biological target: T2, IRAK3-ePL (Homo sapiens, UniProt Q9Y616); assay: IRAK3-ePL overexpressing degradation assay (InCELL Hunter luminescence, dose response); type: cell-based; settings: for IRAK3 ePL degradation Ymin: lowest percentage of target protein remaining following compound treatment; for DC50: read-out: IRAK3 ePL degradation EC50
T2 construct: expressed in transfected cells; host or cells: 293T CRBN OE/GSPT1 G575N KI cells, lentiviral transduction, puromycin selected
Method: Example B1. IRAK3-ePL Overexpressing Degradation Assay
Stable cell lines were generated by the following protocol. 3×10^5 Lenti-X 293T cells (Clonetech) were plated in 0.8 mL of media in a 12-well plate and incubated overnight at 37° C./5% CO2. Packaging plasmid (0.4 μg, pMD), envelope plasmid (0.4 μg, pSP), and lentiviral transfer IRAK3-ePL plasmid (0.8 μg, TRAK3 sequence NM_007199.3) were mixed in 0.1 mL of Opti-MEM and incubated for 5 min. Simultaneously, 2.4 μL of Lipofectamine 2000 (Invitrogen) was added to 0.1 mL of Opti-MEM (Gibco) and incubated for 5 min. The plasmid DNA and lipofectamine were combined and the mixture was allowed to incubate for 20 min.DNA:Lipofectamine Opti-MEM mixtures were then added to previously plated cells dropwise and the cells were incubated for ~16 h at 37° C./5% CO2. Following incubation, the media was removed and 1.2 mL of fresh media was added per well. Lenti-X 293T cells were incubated for ~30 h at 37° C./5% CO2. […] Following incubation, media was removed from the Lenti-X 293T wells and passed through a […] filter. Part of the viral supernatant was used to transduce cells and the rest was stored at −80° C. Viruses were then added individually (0.5 mL virus) to each well of the 293T^CRBN OE/GSPT1 G575N KI cells, followed by addition of polybrene (10 mg/mL Millipore) to each well at a final concentration of 5.0 μg/mL. Cells were incubated for ~24 h at 37° C./5% CO2. After aspirating media off plates, cells were washed with DPBS, trypsinized and plated in a 10 cm dish in 15 mL of media and […] puromycin. Following incubation of cells for ~72 h at 37° C./5% CO2, media was aspirated off plates, and cells were washed with DPBS and trypsinized. The cells were plated in a 15 cm dish in 40 mL of media with 1.0 μg/mL Puromycin (Gibco) and incubated for ~72 h at 37° C./5% CO2. Following incubation, media was removed and cells were washed with DPBS and trypsinized. The majority of cells were resuspended in Invitrogen freezing media and stored away (~6-8×10^6 cells/vial).
IRAK3-ePL cellular dose response curve degradation assays were performed by the following protocol. Compounds to be tested were dispensed into a white 384-well tissue-culture treated plate using an acoustic liquid handler. Dilutions were prepared based on a 25 μL assay volume in duplicate 10 point 3-fold serial dilutions starting with a 10 μM dose. Negative control wells were included, which only contain 0.2% DMSO to calculate 100% signal. Positive control wells containing 30 μM Ataluren (luciferase inhibitor) were included to calculate the background signal level. All wells were backfilled to a final DMSO concentration of 0.2% to ensure DMSO uniformity across wells. IRAK3-ePL expressing cells (IRAK3-ePL Lenti-X 293T^CRBN/GSPT1 G575N) were washed, trypsinized, counted, and resuspended in fresh DMEM (Gibco) to give a cell concentration of 200,000 cells/mL. 25 μL of cells (5,000 cells/well) were dispensed into the wells of the 384-well plate prespotted with compounds in the previous step and incubated overnight at 37° C./5% CO2. Following incubation, the 384-well plate was taken out of the incubator and left at room temperature for 30 min. InCELL hunter reagent was prepared according to manufacturer's instructions (EA reagent, lysis buffer, and substrate reagent in a 1:1:4 ratio, Cat #96-0002, DiscoverX), which was added to the 384-well plate 25 μL per well. Following the incubation of the plate for 1 h at room temperature, the luminescence signal was read using a ViewLux plate reader. Data was processed and analyzed in ActivityBase software. In short, the average luminescence values of the positive control wells were subtracted from the rest of the wells for background correction, and all luminescence values were normalized to the DMSO control wells. The average value of the DMSO control wells was set to equal 100% of the relative IRAK3-ePL protein levels. […]

| IC50 [1] [nM] | IRAK3 ePL degradation Ymin [2] [%] | DC50 [2] [nM] | Structure (SMILES) |
| --- | --- | --- | --- |
| 5.9 | 14 | 1 | Cc1cccc(-c2cnc(Nc3cnn(C4CCN(CCN5CCN(c6ccc(C7CCC(=O)NC7=O)cc6)CC5)CC4)c3)c3nccn23)c1 (stereo not shown) [Compound 5, 3-(4-(4-(2-(4-(4-((5-(m-tolyl)imidazo[1,2-a]pyrazin-8-yl)amino)-1H-pyrazol-1-yl)piperidin-1-yl)ethyl)piperazin-1-yl)phenyl) piperidine-2,6-dione] |
| 6.4 | 15 | 0.51 | O=C1CCC(c2ccc(N3CCN(CCN4CCC(n5cc(Nc6ncc(-c7ccc8c(c7)NC(=O)CO8)n7ccnc67)cn5)CC4)CC3)cc2)C(=O)N1 (stereo not shown) [Compound 15, 3-(4-(4-(2-(4-(4-((5-(3-oxo-3,4-dihydro-2H-benzo[b][1,4]oxazin-6-yl)imidazo[1,2-a]pyrazin-8-yl)amino)-1H-pyrazol-1-yl)piperidin-1-yl)ethyl)piperazin-1-yl)phenyl) piperidine-2,6-dione] |
| 2.9 | 16 | 0.77 | Cc1cccc(-c2cnc(Nc3cnn(C4CCN(CC(=O)N5CCN(c6ccc(C7CCC(=O)NC7=O)cc6)CC5)CC4)c3)c3nccn23)c1 (stereo not shown) [Compound 20, 3-(4-(4-(2-(4-(4-((5-(m-tolyl)imidazo[1,2-a]pyrazin-8-yl)amino)-1H-pyrazol-1-yl)piperidin-1-yl)acetyl)piperazin-1-yl)phenyl)piperidine-2,6-dione] |
| 36 | 23 | 1.4 | C[C@@H]1CN(c2ccc(C3CCC(=O)NC3=O)cc2)CCN1CCN1CCC(n2cc(Nc3ncc(C4CC4)n4ccnc34)cn2)CC1 (stereo partly drawn) [Compound 32, 3-(4-((R)-4-(2-(4-(4-((5-cyclopropylimidazo[1,2-a]pyrazin-8-yl)amino)-1H-pyrazol-1-yl)piperidin-1-yl)ethyl)-3-methylpiperazin-1-yl)phenyl) piperidine-2,6-dione] |
| 1.5 | 23 | 1.7 | Cc1cc(-c2cnc(Nc3cnn([C@H]4CCN(CCN5CCN(c6ccc(C7CCC(=O)NC7=O)cc6)C[C@@H]5C)[C@@H](C)C4)c3)c3nccn23)c(F)cc1F (stereo partly drawn) [Compound 34, 3-(4-((S)-4-(2-((2S,4S)-4-(4-((5-(2,4-difluoro-5-methylphenyl)imdazo [1,2-a]pyrazin-8-yl)amino)-1H-pyrazol-1-yl)-2-methylpiperidin-1-yl)ethyl)-3-methylpiperazin-1-yl)phenyl) piperidine-2,6-dione] |
| 27 | 29 | 5.5 | Cc1ccc(-c2cnc(Nc3cnn(C4CCN(CCN5CCN(c6ccc(C7CCC(=O)NC7=O)cc6)CC5)CC4)c3)c3nccn23)cc1 (stereo not shown) [Compound 78, 3-(4-(4-(2-(4-(4-((5-(p-tolyl)imidazo[1,2-a]pyrazin-8-yl)amino)-1H-pyrazol-1-yl)piperidin-1-yl)ethyl)piperazin-1-yl)phenyl) piperidine-2,6-dione] |
| 260 | 29 | 29 | Cc1ccccc1-c1cnc(Nc2cnn(C3CCN(CCN4CCN(c5ccc(C6CCC(=O)NC6=O)cc5)CC4)CC3)c2)c2nccn12 (stereo not shown) [Compound 79, 3-(4-(4-(2-(4-(4-((5-(o-tolyl)imidazo[1,2-a]pyrazin-8-yl)amino)-1H-pyrazol-1-yl)piperidin-1-yl)ethyl)piperazin-1-yl)phenyl) piperidine-2,6-dione] |
| 1 | – | – | Cc1cc(-c2cnc(Nc3cnn([C@H]4CC[C@H](CCN5CCN(c6cccc7c(C8CCC(=O)NC8=O)nn(C)c67)CC5)CC4)c3)c3nccn23)c(F)cc1F (stereo partly drawn) [Compound 117, 3-(7-(4-(2-((trans)-4-(4-((5-(2,4-difluoro-5-methylphenyl)imidazo[1,2-a]pyrazin-8-yl)amino)-1H-pyrazol-1-yl)cyclohexyl)ethyl)piperazin-1-yl)-1-methyl-1H-indazol-3-yl)piperidine-2,6-dione] |
| 0.1 | – | – | O=C1CCC(c2ccc(N3CCN(CC[C@H]4CC[C@H](n5cc(Nc6ncc(-c7cnn8c7CCCC8)n7ccnc67)cn5)CC4)CC3)cc2)C(=O)N1 (stereo partly shown) [Compound 118] |
| 1.7 | – | – | O=C1CCC(c2ccc(N3CCN(CCN4CCC(n5cc(Nc6ncc(-c7cnn(C8CC8)c7)n7ccnc67)cn5)CC4)CC3)cc2)C(=O)N1 (stereo not shown) [Compound 119, 3-(4-(4-(2-(4-(4-((5-(1-cyclopropyl-1H-pyrazol-4-yl)imidazo[1,2-a]pyrazin-8-yl)amino)-1H-pyrazol-1-yl)piperidin-1-yl)ethyl)piperazin-1-yl)phenyl) piperidine-2,6-dione] |
| 1.5 | – | – | O=C1CCC(c2ccc(N3CCN(CC[C@H]4CC[C@H](n5cc(Nc6ncc(-c7cn[nH]c7)n7ccnc67)cn5)CC4)CC3)cc2)C(=O)N1 (stereo partly drawn) [Compound 120, 3-(4-(4-(2-((trans)-4-(4-((5-(1H-pyrazol-4-yl)imidazo[1,2-a]pyrazin-8-yl)amino)-1H-pyrazol-1-yl)cyclohexyl)ethyl)piperazin-1-yl)phenyl) piperidine-2,6-dione] |
